Test results published in ChEMBL document CHEMBL1201862, “PubChem BioAssay data set” (2004).
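Exposure lasted 48 hours, with cells grown in 96-well plates and compounds tested at five concentrations. GI50 marks 50% less growth.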 Active and inactive are the calls of the source. Rule as the data show it: active = GI50 up to about 1.1 µM and inactive = higher.

Experiments:
Experiment in all cases: growth of human tumour cells (NCI), 48 h
T47D = test system: T47D
LOX IMVI = test system: LOX IMVI
NCI/ADR-RES = test system: NCI/ADR-RES
BT-549 = test system: BT-549
HOP-62 = test system: HOP-62
786-0 = test system: 786-0
MDA-N = test system: MDA-N
Malme-3M = test system: Malme-3M
SF-539 = test system: SF-539
HCC 2998 = test system: HCC 2998
RPMI-8226 = test system: RPMI-8226
KM12 = test system: KM12
SR = test system: SR
OVCAR-5 = test system: OVCAR-5
MDA-MB-435 = test system: MDA-MB-435
LXFL 529 = test system: LXFL 529
KM-20L2 = test system: KM-20L2
M19-MEL = test system: M19-MEL
DMS-273 = test system: DMS-273
SNB-78 = test system: SNB-78

Row | SMILES | GI50 (T47D) | GI50 (LOX IMVI) | GI50 (NCI/ADR-RES) | GI50 (BT-549) | GI50 (HOP-62) | GI50 (786-0) | GI50 (MDA-N) | GI50 (Malme-3M) | GI50 (SF-539) | GI50 (HCC 2998) | GI50 (RPMI-8226) | GI50 (KM12) | GI50 (SR) | GI50 (OVCAR-5) | GI50 (MDA-MB-435) | GI50 (LXFL 529) | GI50 (KM-20L2) | GI50 (M19-MEL) | GI50 (DMS-273) | GI50 (SNB-78)
1 | O=C1Nc2ccccc2/C1=N/Nc1ccccc1Cl | 12.5 µM (inactive) | 69 µM (inactive) | 44.6 µM (inactive) | > 100 µM (inactive) | 11.1 µM (inactive) | 10.6 µM (inactive) | 95.5 µM (inactive) | 77.3 µM (inactive) | 29 µM (inactive) | 81.1 µM (inactive) | 64.9 µM (inactive) | 63.1 µM (inactive) | 7.62 µM (inactive) | 51.8 µM (inactive) | > 100 µM (inactive) | – | – | – | – | –
2 | COc1ccc(S(=O)(=O)NNS(C)(=O)=O)cc1OC | – | > 100 µM (inactive) | – | – | > 100 µM (inactive) | > 100 µM (inactive) | – | > 100 µM (inactive) | > 100 µM (inactive) | > 100 µM (inactive) | > 100 µM (inactive) | > 100 µM (inactive) | > 100 µM (inactive) | – | – | > 100 µM (inactive) | > 100 µM (inactive) | > 100 µM (inactive) | > 100 µM (inactive) | –
3 | Nn1c(=S)[nH]nc(/C=C/c2c(O)ccc3ccccc23)c1=O | 3.97 µM (inactive) | 2.48 µM (inactive) | 3.26 µM (inactive) | 5.43 µM (inactive) | 11.6 µM (inactive) | 5.46 µM (inactive) | 12.3 µM (inactive) | 12.2 µM (inactive) | 19.3 µM (inactive) | 7.5 µM (inactive) | 28.6 µM (inactive) | 6.12 µM (inactive) | 4.67 µM (inactive) | 7.08 µM (inactive) | 13.2 µM (inactive) | – | – | – | – | –
4 | Cc1cc(C)c2c(c1)CN1CN2Cc2cc(C)cc(C)c21 | – | 17 µM (inactive) | – | – | 18.7 µM (inactive) | 17.2 µM (inactive) | – | – | > 10 µM (inactive) | – | 19.9 µM (inactive) | 18.2 µM (inactive) | 18.8 µM (inactive) | 55.1 µM (inactive) | – | 32.7 µM (inactive) | – | 23 µM (inactive) | 18.9 µM (inactive) | 17.5 µM (inactive)
5 | Cc1cc(=O)n(-c2c(C)cccc2Cl)c(/C=C(\O)c2ccncc2)n1 | – | > 100 µM (inactive) | – | – | > 100 µM (inactive) | > 100 µM (inactive) | – | > 100 µM (inactive) | > 100 µM (inactive) | > 100 µM (inactive) | – | 48.5 µM (inactive) | – | 98.6 µM (inactive) | – | > 100 µM (inactive) | > 100 µM (inactive) | – | > 100 µM (inactive) | > 100 µM (inactive)
6 | Cc1cc2nc(C=C(C(F)(F)F)C(F)(F)F)sc2cc1C | 0.142 µM (active) | 0.294 µM (active) | 0.55 µM (active) | 0.855 µM (active) | 3.05 µM (inactive) | 0.316 µM (active) | 1.44 µM (inactive) | 1.44 µM (inactive) | 1.54 µM (inactive) | 3.18 µM (inactive) | 0.055 µM (active) | 1.7 µM (inactive) | 0.0923 µM (active) | 2.59 µM (inactive) | 1.21 µM (inactive) | – | – | – | – | –
7 | CCOC(=O)C(=O)Nc1ccccc1C | – | > 100 µM (inactive) | – | – | > 100 µM (inactive) | > 100 µM (inactive) | – | > 100 µM (inactive) | > 100 µM (inactive) | > 100 µM (inactive) | > 100 µM (inactive) | – | – | > 100 µM (inactive) | – | > 100 µM (inactive) | > 100 µM (inactive) | > 100 µM (inactive) | – | > 100 µM (inactive)
8 | CCCCOC(=O)/C(CC(=O)C=C(C)C)=N\NS(=O)(=O)c1ccc(C)cc1 | – | 71.3 µM (inactive) | – | – | > 100 µM (inactive) | > 100 µM (inactive) | – | > 100 µM (inactive) | > 100 µM (inactive) | > 100 µM (inactive) | > 100 µM (inactive) | > 100 µM (inactive) | 27.7 µM (inactive) | > 100 µM (inactive) | – | > 100 µM (inactive) | > 100 µM (inactive) | > 100 µM (inactive) | – | > 100 µM (inactive)
9 | O=C1Cc2ccccc2N1/N=C\c1ccc([N+](=O)[O-])cc1 | – | > 100 µM (inactive) | – | – | > 100 µM (inactive) | > 100 µM (inactive) | – | > 100 µM (inactive) | > 100 µM (inactive) | > 100 µM (inactive) | > 100 µM (inactive) | > 100 µM (inactive) | – | > 100 µM (inactive) | – | – | > 100 µM (inactive) | > 100 µM (inactive) | > 100 µM (inactive) | > 100 µM (inactive)
10 | CC(C)c1ccc(Cc2ccc(C(C)C)c(NC(=O)C(=O)Cc3cnc4ccccc4n3)c2C(C)C)c(C(C)C)c1NC(=O)C(=O)Cc1cnc2ccccc2n1 | – | > 100 µM (inactive) | – | – | > 100 µM (inactive) | > 100 µM (inactive) | – | > 100 µM (inactive) | > 100 µM (inactive) | > 100 µM (inactive) | > 100 µM (inactive) | > 100 µM (inactive) | – | > 100 µM (inactive) | – | > 100 µM (inactive) | > 100 µM (inactive) | > 100 µM (inactive) | – | > 100 µM (inactive)
11 | Oc1nnc2c(-c3ccccc3)n[nH]c2n1 | – | > 100 µM (inactive) | – | – | > 100 µM (inactive) | 15.5 µM (inactive) | – | – | 15 µM (inactive) | > 100 µM (inactive) | > 100 µM (inactive) | > 100 µM (inactive) | > 100 µM (inactive) | > 100 µM (inactive) | – | > 100 µM (inactive) | > 100 µM (inactive) | – | > 100 µM (inactive) | > 100 µM (inactive)
12 | Cc1ccccc1C(=O)N/N=C/c1ccc(Sc2nccn2C)c([N+](=O)[O-])c1 | 45.3 µM (inactive) | 50.8 µM (inactive) | > 100 µM (inactive) | 67.1 µM (inactive) | 80.2 µM (inactive) | > 100 µM (inactive) | 32.7 µM (inactive) | 69.3 µM (inactive) | > 100 µM (inactive) | 45.3 µM (inactive) | 47.9 µM (inactive) | 66.7 µM (inactive) | 40 µM (inactive) | > 100 µM (inactive) | 25.9 µM (inactive) | – | – | – | – | –
13 | OC(c1ccccc1Br)(c1ccccc1Br)C(F)(F)F | – | 20.9 µM (inactive) | – | – | 28 µM (inactive) | 19.1 µM (inactive) | – | 24 µM (inactive) | 33.2 µM (inactive) | 0.322 µM (active) | – | 15.6 µM (inactive) | 24.6 µM (inactive) | 25.4 µM (inactive) | – | 42.1 µM (inactive) | 24.5 µM (inactive) | 23.9 µM (inactive) | 20.3 µM (inactive) | –
14 | C/C=C/[P+](c1ccccc1)(c1ccccc1)c1ccccc1 | 0.163 µM (active) | 1.34 µM (inactive) | > 100 µM (inactive) | 0.277 µM (active) | 3.03 µM (inactive) | 7.33 µM (inactive) | 0.35 µM (active) | 0.541 µM (active) | 1.48 µM (inactive) | 0.24 µM (active) | 0.0413 µM (active) | 0.277 µM (active) | 0.381 µM (active) | 4.24 µM (inactive) | 0.277 µM (active) | – | – | – | – | –
15 | OCC(O)C(OC1OC(CO)C(O)C(O)C1O)c1nn(-c2ccc(Cl)cc2)c2nc3cc(Cl)ccc3nc12 (stereo unspecified) | – | > 100 µM (inactive) | – | – | > 100 µM (inactive) | > 100 µM (inactive) | – | > 100 µM (inactive) | > 100 µM (inactive) | > 100 µM (inactive) | > 100 µM (inactive) | > 100 µM (inactive) | > 100 µM (inactive) | > 100 µM (inactive) | – | > 100 µM (inactive) | > 100 µM (inactive) | > 100 µM (inactive) | – | > 100 µM (inactive)
16 | COC(=O)NC12CC3CC(CC(F)(C3)C1)C2 | – | > 100 µM (inactive) | – | – | > 100 µM (inactive) | > 100 µM (inactive) | – | > 100 µM (inactive) | > 100 µM (inactive) | > 100 µM (inactive) | > 100 µM (inactive) | > 100 µM (inactive) | – | > 100 µM (inactive) | – | – | > 100 µM (inactive) | > 100 µM (inactive) | > 100 µM (inactive) | > 100 µM (inactive)
17 | Oc1cccc(C2SCc3nc4ccccc4n32)c1 (stereo unspecified) | – | – | – | – | – | > 100 µM (inactive) | – | 41.1 µM (inactive) | > 100 µM (inactive) | > 100 µM (inactive) | 39.3 µM (inactive) | 73.3 µM (inactive) | 48.8 µM (inactive) | 26.2 µM (inactive) | – | 40.6 µM (inactive) | – | – | 47.1 µM (inactive) | > 100 µM (inactive)
18 | O=C(CCC(=O)Nc1cccc(Cl)c1)CC(=O)c1ccc(F)cc1 | – | > 100 µM (inactive) | – | – | > 100 µM (inactive) | > 100 µM (inactive) | – | > 100 µM (inactive) | > 100 µM (inactive) | > 100 µM (inactive) | > 100 µM (inactive) | > 100 µM (inactive) | > 100 µM (inactive) | > 100 µM (inactive) | – | – | > 100 µM (inactive) | – | > 100 µM (inactive) | > 100 µM (inactive)
19 | CCOC(=O)[C@]12C3C=CC(C3)C1C(=O)C1OC12 (stereo partly specified) | – | > 100 µM (inactive) | – | – | > 100 µM (inactive) | > 100 µM (inactive) | – | > 100 µM (inactive) | > 100 µM (inactive) | > 100 µM (inactive) | > 100 µM (inactive) | > 100 µM (inactive) | – | > 100 µM (inactive) | – | > 100 µM (inactive) | – | > 100 µM (inactive) | > 100 µM (inactive) | > 100 µM (inactive)
20 | Cc1cccc(N(CC(=O)O)S(=O)(=O)c2ccccc2)c1 | – | > 100 µM (inactive) | – | – | – | > 100 µM (inactive) | – | > 100 µM (inactive) | > 100 µM (inactive) | > 100 µM (inactive) | > 100 µM (inactive) | > 100 µM (inactive) | – | > 100 µM (inactive) | – | > 100 µM (inactive) | > 100 µM (inactive) | > 100 µM (inactive) | > 100 µM (inactive) | –
